This assay concerns the target T1, Sclerostin (Homo sapiens, UniProt Q9BQB4).
T1 construct: host or cells: human embryonic cells (reporter cells)
T1 sequence (Q9BQB4 24-213): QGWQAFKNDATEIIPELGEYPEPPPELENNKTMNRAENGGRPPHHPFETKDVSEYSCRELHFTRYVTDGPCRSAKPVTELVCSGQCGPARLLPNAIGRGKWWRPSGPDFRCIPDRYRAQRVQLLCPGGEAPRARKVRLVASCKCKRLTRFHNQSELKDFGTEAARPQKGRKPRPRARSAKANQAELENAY
The assay can be described thus: Luciferase Wnt pathway activity assay: inhibition of sclerostin by restoration of Wnt signaling in human cells. Type of assay: cell-based. As for the experimental part: The Y axis represents Relative Light Units (RLU) which represents Wnt pathway signaling. Addition of Wnt (W) activates the Wnt pathway, while addition of Sclerostin (S) inhibits the Wnt pathway. […] Compound concentrations are indicated in μM.
Briefly, cells (e.g., human cells) are treated with a predetermined dose of a candidate compound for a complete dosing schedule.
Concentrations are indicated along the X axis in micromolar values.

Molecules are shown by their SMILES. pIC50: −log10 of the molar value.

As for `COc1cc2c(cc1O)C[C@H]1c3c(cc(O)c(OC)c3-2)CCN1C` [Compound 1, (S)-1,10-dimethoxy-6-methyl-5,6,6a,7-tetrahydro-4H-dibenzo[de,g]quinoline-2,9-diol], the pIC50 (in general, −log10 of the IC50, conventionally taken in molar units) is 5.30.

For the origin of these results see patent US20140023653A1, “BOLDINE DERIVATIVES FOR PROMOTING BONE GROWTH” (OSTEOGENEX, INC., priority 2012, published 2014).
